From PubChem BioAssay (NCI)
Several values for one entry are separate records, joined by “and”; a condition that tells them apart may be missing. Equal entries are not always repeated.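 How tested: cells in 96-well plates exposed to compound for 48 hours at five concentrations. GI50: concentration for 50% inhibition of growth. At the TGI there is no net growth.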

Experiments:
Assay in all cases: NCI-60 cell line screen, 48 h
SF-295 CNS = test system: SF-295 CNS
MOLT-4 leukemia = test system: MOLT-4 leukemia
786-0 renal = test system: 786-0 renal
HT29 colon = test system: HT29 colon
RPMI-8226 leukemia = test system: RPMI-8226 leukemia
EKVX NSCLC = test system: EKVX NSCLC
SK-MEL-5 melanoma = test system: SK-MEL-5 melanoma
CAKI-1 renal = test system: CAKI-1 renal
M14 melanoma = test system: M14 melanoma
OVCAR-5 ovarian = test system: OVCAR-5 ovarian

Row | Structure (SMILES) | GI50 (SF-295 CNS) [µM] | TGI (SF-295 CNS) | GI50 (MOLT-4 leukemia) | TGI (MOLT-4 leukemia) [µM] | GI50 (786-0 renal) [µM] | TGI (786-0 renal) | GI50 (HT29 colon) [µM] | TGI (HT29 colon) [µM] | TGI (RPMI-8226 leukemia) | GI50 (EKVX NSCLC) [µM] | TGI (EKVX NSCLC) [µM] | GI50 (SK-MEL-5 melanoma) [µM] | TGI (SK-MEL-5 melanoma) | GI50 (CAKI-1 renal) [µM] | TGI (CAKI-1 renal) [µM] | GI50 (M14 melanoma) | TGI (M14 melanoma) | GI50 (OVCAR-5 ovarian) [µM] | TGI (OVCAR-5 ovarian) [µM] | GI50 (RPMI-8226 leukemia) [µM]
1 | COc1ccccc1-[n+]1cc(-c2ccc(-c3ccccc3)cc2)n2c1CCCCC2 | 0.359 | 4.03 µM | 0.292 µM | 3.97 | 1.31 | 11.5 µM | 0.281 | 10.2 | 1.53 µM | 0.152 | 14.4 | 0.166 | 0.475 µM | 11.5 | 33.4 | 0.443 µM | 10.1 µM | 0.668 | 16.6 | –
2 | C[C@@H]1C=C(CCCCCCCCCCC[C@H](O)[C@@H]2CCC(=O)O2)C(=O)O1 | 19.8 | 48.6 µM | 21.6 µM | 42.6 | 23.6 | > 100 µM | 42.4 | > 100 | – | 33.2 | > 100 | 14.5 | 28.1 µM | 35.8 | > 100 | 25.1 µM | 87.9 µM | – | – | –
3 | CC1OC(n2ncc(=O)[nH]c2=O)C=CC1=O (stereo not drawn) | – | > 100 µM | 81.1 µM and 30.2 µM | > 100 | – | > 100 µM | – | > 100 | 99.3 µM and 62 µM | – | – | – | – | – | > 100 | 89.4 µM and 20.5 µM | > 100 µM and 60.5 µM | – | > 100 | –
4 | CCCCn1c2cc(OCc3cn(-c4ccc(Cl)cc4)nn3)ccc2c2ccnc(C)c21 | 5.03 | 17.8 µM | 6.07 µM | 23.9 | 5.76 | 11 µM | 6.25 | > 33.3 | 11.9 µM | 6.93 | > 33.3 | 5.35 | 9.87 µM | – | – | 5.82 µM | 16.4 µM | 6.55 | 21.5 | 3.43
5 | Oc1ccc(/C=N\Nc2ccccn2)c(O)c1 | 0.318 | 0.767 µM | 0.382 µM | 10.6 | 1.53 | > 100 µM | 4.8 | > 100 | > 100 µM | 1.4 | 7.46 | 2.17 | > 100 µM | 0.252 | 0.687 | – | – | 5.48 | > 100 | 1.45
6 | C(=N\Nc1ccccn1)/c1ccccn1 | 0.359 | > 41.3 µM | 0.392 µM | > 100 | 0.301 | – | 0.563 | > 100 | > 100 µM | 0.348 | > 100 | – | – | 0.257 | > 50.7 | 0.313 µM | 57.2 µM | 0.588 | > 100 | 6.17
7 | O=C1NC(=S)NC(=O)C1=Cc1cc2c(cc1[N+](=O)[O-])OCO2 | – | – | – | > 100 | – | > 100 µM | – | – | > 100 µM | – | > 100 | – | > 100 µM | – | > 100 | – | > 100 µM | – | – | –
8 | CCCCCCCCCCC/C(=N/O)c1ccc(O)c2ncccc12 | – | 6.78 µM | – | – | – | 30.2 µM | – | 17.2 | – | – | 20.1 | – | 4.18 µM | – | 51.6 | – | 4.8 µM | – | 6.66 | –
9 | C=C1C(=O)O[C@H]2[C@H]1CC/C(COC(=O)NCc1cc3ccccc3[nH]1)=C\CC[C@@]1(C)O[C@@H]21 | 8.23 | 20.9 µM | 2.43 µM | 7.64 | 1.76 | 3.52 µM | 2.21 | 4.7 | 3.27 µM | 1.64 | 3.53 | 2.98 | 9.71 µM | – | – | 1.74 µM | 3.85 µM | 2.26 | 5.12 | 0.604
10 | O=C1c2cccc3cc([N+](=O)[O-])cc(c23)C(=O)N1CCNCCNCCNCCN1C(=O)c2cccc3cc([N+](=O)[O-])cc(c23)C1=O | – | 0.422 µM and 0.465 µM | – | 1.13 | – | 1.08 µM and 0.612 µM | – | – | – | – | 0.88 | 0.0176 | 1.52 µM and 0.174 µM | – | 0.548 | – | 0.161 µM | – | 0.326 | –
11 | CC(C)NCCNC(=O)c1ccccc1Nc1c(Cl)cccc1Cl | – | 28.5 µM | – | 27.3 | – | 16 µM | – | 17.5 | 16.2 µM | – | 28.1 | – | 17.3 µM | – | – | – | 25.1 µM | – | 20.4 | –
12 | C1CC[N-]CC1.C1CC[N-]CC1.C1CC[N-]CC1.C1CC[N-]CC1.[Cl][Rh][Cl] | 3 | 81.1 µM | 13.7 µM | > 100 | 41.4 | > 100 µM | 7.6 | 45.8 | 13.6 µM | – | – | 4.2 | 18.9 µM | 67.7 | > 100 | 6.26 µM | > 100 µM | 6.83 | 49.8 | 3.2
13 | O=c1cccc(C#CC#C[C@H]2O[C@@H]2CO)o1 | 1.7 | 3.77 µM | 0.154 µM | > 100 | 0.637 | 1.54 µM | – | – | 0.331 µM | 1.97 | 4.18 | 1.5 | 2.95 µM | 0.189 | 0.359 | 1.23 µM | – | 1.73 | 3.57 | 0.101
14 | O=S(=O)([O-])c1cccc2cccc(N=Cc3ccccc3[O-])c12.O=S(=O)([O-])c1cccc2cccc(N=Cc3ccccc3[O-])c12.[O]=[U]=[O] | 67.5 | > 100 µM | 29 µM | > 100 | 33.7 | > 100 µM | 58 | > 100 | > 100 µM | > 100 | > 100 | – | – | – | – | 43 µM | > 100 µM | > 100 | > 100 | 39.8
15 | N#CC(NNC(=O)c1ccccc1O)c1ccc(O)cc1 (stereo not drawn) | – | > 100 µM | – | > 100 | – | > 100 µM | – | > 100 | > 100 µM | – | – | – | > 100 µM | – | 98.9 | – | > 100 µM | – | > 100 | –
16 | CCCN(CCCCC(NC(C)=O)C(=O)NCc1ccccc1)C(=O)NCCCl (stereo not drawn) | – | > 100 µM | – | > 100 | – | > 100 µM | – | > 100 | > 100 µM | – | > 100 | – | > 100 µM | – | > 100 | – | > 100 µM | – | – | –
